# Data: paper PMC5218480 (PLoS ONE, 2017)
# System: MV-4-11 cells
# Assay: Gene expression microarray analysis (Affymetrix PrimeView) and GSEA
# Format: cell-based, human
# Set-up: RFU PODN (11730768_x_at) / Fold change /veh PODN (11730768_x_at) / RFU LINC00158 (11744669_a_at) / Fold change /veh LINC00158 (11744669_a_at) / RFU DUSP10 (11751237_a_at) / Fold change /veh DUSP10 (11751237_a_at) / RFU ID3 (11757404_x_at) / Fold change /veh ID3 (11757404_x_at) / RFU PLEKHG5 (11737974_s_at) / Fold change /veh PLEKHG5 (11737974_s_at) / RFU LRRC4B (11730491_at) / Fold change /veh LRRC4B (11730491_at) / RFU GIMAP4 (11747438_a_at) / Fold change /veh GIMAP4 (11747438_a_at) / RFU KRT8 (11758183_x_at) / Fold change /veh KRT8 (11758183_x_at) / RFU CNN1 (11734310_a_at) / Fold change /veh CNN1 (11734310_a_at) / RFU VPS37D (11726825_at) / Fold change /veh VPS37D (11726825_at) / RFU C10orf10 (11716522_x_at) / Fold change /veh C10orf10 (11716522_x_at) / RFU KIR2DL2 /// KIR2DL4 /// KIR2DL5A /// KIR2DL5B /// KIR2DS1 /// KIR2DS2 /// KIR2DS3 /// KIR2DS4 /// KIR3DL3 /// KIR3DL3 /// KIR3DS1 (11738374_at) / Fold change /veh KIR2DL2 /// KIR2DL4 /// KIR2DL5A /// KIR2DL5B /// KIR2DS1 /// KIR2DS2 /// KIR2DS3 /// KIR2DS4 /// KIR3DL3 /// KIR3DL3 /// KIR3DS1 (11738374_at) / RFU C1QL1 (11718748_at) / Fold change /veh C1QL1 (11718748_at) / RFU TMPRSS4 (11747572_a_at) / Fold change /veh TMPRSS4 (11747572_a_at) / RFU HAMP (11756126_x_at) / Fold change /veh HAMP (11756126_x_at) / RFU RNFT2 (11725882_a_at) / Fold change /veh RNFT2 (11725882_a_at) / RFU NR4A2 (11747474_a_at) / Fold change /veh NR4A2 (11747474_a_at) / RFU ABCC12 (11746883_a_at) / Fold change /veh ABCC12 (11746883_a_at) / RFU TMEM136 (11760407_x_at) / Fold change /veh TMEM136 (11760407_x_at) / RFU CLDN22 /// WWC2 (11732394_at) / Fold change /veh CLDN22 /// WWC2 (11732394_at) / RFU HLA-DPB1 (11760878_x_at) / Fold change /veh HLA-DPB1 (11760878_x_at) / RFU SPINT1 (11716480_a_at) / Fold change /veh SPINT1 (11716480_a_at) / RFU GAP43 (11754022_s_at) / Fold change /veh GAP43 (11754022_s_at) / RFU A4GNT (11735810_at) / Fold change /veh A4GNT (11735810_at) / RFU PRB3 (11715151_x_at) / Fold change /veh PRB3 (11715151_x_at) / RFU TUBB4B (11761932_at) / Fold change /veh TUBB4B (11761932_at) / RFU CAPN14 (11732068_a_at) / Fold change /veh CAPN14 (11732068_a_at) / RFU TMCC2 (11721928_a_at) / Fold change /veh TMCC2 (11721928_a_at) / RFU IRGQ (11745062_a_at) / Fold change /veh IRGQ (11745062_a_at) / RFU FAM174B (11720279_a_at) / Fold change /veh FAM174B (11720279_a_at) / RFU TMPRSS4 (11748680_a_at) / Fold change /veh TMPRSS4 (11748680_a_at) / RFU FAM212B (11763350_a_at) / Fold change /veh FAM212B (11763350_a_at) / RFU PLEKHG5 (11743358_a_at) / Fold change /veh PLEKHG5 (11743358_a_at) / RFU ZSCAN30 (11745921_a_at) / Fold change /veh ZSCAN30 (11745921_a_at) / RFU CMKLR1 (11741424_a_at) / Fold change /veh CMKLR1 (11741424_a_at) / RFU LOC101060620 /// MAPK8IP1 (11723275_at) / Fold change /veh LOC101060620 /// MAPK8IP1 (11723275_at) / RFU SPTSSB (11747773_x_at) / Fold change /veh SPTSSB (11747773_x_at) / RFU PRSS12 (11739890_at) / Fold change /veh PRSS12 (11739890_at) / RFU BIN1 (11741810_x_at) / Fold change /veh BIN1 (11741810_x_at) / RFU WNT11 (11732464_a_at) / Fold change /veh WNT11 (11732464_a_at) / RFU C10orf10 (11716521_a_at) / Fold change /veh C10orf10 (11716521_a_at) / RFU C5orf56 (11738089_at) / Fold change /veh C5orf56 (11738089_at) / RFU CYB561 (11721691_x_at) / Fold change /veh CYB561 (11721691_x_at) / RFU ANKRD19P (11752326_a_at) / Fold change /veh ANKRD19P (11752326_a_at) / RFU OR2T12 /// OR2T33 /// OR2T8 (11738714_s_at) / Fold change /veh OR2T12 /// OR2T33 /// OR2T8 (11738714_s_at) / RFU VCAN (11748164_a_at) / Fold change /veh VCAN (11748164_a_at) / RFU JSRP1 (11732532_at) / Fold change /veh JSRP1 (11732532_at) / RFU KRTAP10-11 (11738290_x_at) / Fold change /veh KRTAP10-11 (11738290_x_at) / RFU MYO3A (11730013_a_at) / Fold change /veh MYO3A (11730013_a_at) / RFU EBF3 (11725865_a_at) / Fold change /veh EBF3 (11725865_a_at) / RFU CAMK2N1 (11719241_x_at) / Fold change /veh CAMK2N1 (11719241_x_at) / RFU C5orf56 (11738088_a_at) / Fold change /veh C5orf56 (11738088_a_at) / RFU OLFML3 (11715873_a_at) / Fold change /veh OLFML3 (11715873_a_at) / RFU LOC100653217 /// NTM (11731650_a_at) / Fold change /veh LOC100653217 /// NTM (11731650_a_at) / RFU MAPK11 (11762145_a_at) / Fold change /veh MAPK11 (11762145_a_at) / RFU FIZ1 (11724087_x_at) / Fold change /veh FIZ1 (11724087_x_at) / RFU OASL (11726364_x_at) / Fold change /veh OASL (11726364_x_at) / RFU SOX15 (11748057_x_at) / Fold change /veh SOX15 (11748057_x_at) / RFU CD79A (11719716_a_at) / Fold change /veh CD79A (11719716_a_at) / RFU HIST1H1D (11736915_at) / Fold change /veh HIST1H1D (11736915_at) / RFU CASKIN2 (11723855_a_at) / Fold change /veh CASKIN2 (11723855_a_at) / RFU LOC730098 (11760151_x_at) / Fold change /veh LOC730098 (11760151_x_at) / RFU OR4N2 (11742367_at) / Fold change /veh OR4N2 (11742367_at) / RFU PRRT2 (11749266_a_at) / Fold change /veh PRRT2 (11749266_a_at) / RFU SNX32 (11753110_a_at) / Fold change /veh SNX32 (11753110_a_at) / RFU CDHR5 (11726645_a_at) / Fold change /veh CDHR5 (11726645_a_at) / RFU RCAN1 (11760418_a_at) / Fold change /veh RCAN1 (11760418_a_at) / RFU FAM167A (11723789_a_at) / Fold change /veh FAM167A (11723789_a_at) / RFU FAM26E (11764081_at) / Fold change /veh FAM26E (11764081_at) / RFU ISYNA1 (11749810_s_at) / Fold change /veh ISYNA1 (11749810_s_at) / RFU ACY1 (11761880_at) / Fold change /veh ACY1 (11761880_at) / RFU 11764098_at / Fold change /veh 11764098_at / RFU SAMD14 (11745864_x_at) / Fold change /veh SAMD14 (11745864_x_at) / RFU NPB (11741838_a_at) / Fold change /veh NPB (11741838_a_at) / RFU TMPRSS6 (11731388_a_at) / Fold change /veh TMPRSS6 (11731388_a_at) / RFU KRTAP10-2 (11738614_at) / Fold change /veh KRTAP10-2 (11738614_at) / RFU ARHGAP8 /// PRR5-ARHGAP8 (11727945_x_at) / Fold change /veh ARHGAP8 /// PRR5-ARHGAP8 (11727945_x_at) / RFU KRTAP5-7 /// NADSYN1 (11734609_at) / Fold change /veh KRTAP5-7 /// NADSYN1 (11734609_at) / RFU RASL12 (11751679_a_at) / Fold change /veh RASL12 (11751679_a_at) / RFU CDKN2B (11736163_a_at) / Fold change /veh CDKN2B (11736163_a_at) / RFU PRF1 (11729649_at) / Fold change /veh PRF1 (11729649_at) / RFU, ZNF638 /// ZNF638-IT1 / Fold change vs veh, ZNF638 /// ZNF638-IT1 / RFU, PANK3 / Fold change vs veh, PANK3 / RFU, SH3YL1 / Fold change vs veh, SH3YL1 / RFU, ZEB2 / Fold change vs veh, ZEB2 / RFU, NRIP1 / Fold change vs veh, NRIP1 / RFU, PTTG1IP / Fold change vs veh, PTTG1IP / RFU, CAPN2 / Fold change vs veh, CAPN2 / RFU, MED14 / Fold change vs veh, MED14 / RFU, SNORA58 / Fold change vs veh, SNORA58 / RFU, C1orf63 / Fold change vs veh, C1orf63 / RFU, LRRFIP1 / Fold change vs veh, LRRFIP1 / RFU, NDUFAF7 / Fold change vs veh, NDUFAF7 / RFU, SLC12A2 / Fold change vs veh, SLC12A2 / RFU, IBTK / Fold change vs veh, IBTK / RFU, ESF1 / Fold change vs veh, ESF1 / Fold change vs veh, TMEM50B / RFU, TAOK1 / Fold change vs veh, TAOK1 / RFU, ACBD3 / Fold change vs veh, ACBD3 / RFU, TMA16 / Fold change vs veh, TMA16 / RFU, RWDD3 / Fold change vs veh, RWDD3 / RFU, BCAT1 / Fold change vs veh, BCAT1 / RFU, EDEM3 / Fold change vs veh, EDEM3 / RFU, TMEM33 / Fold change vs veh, TMEM33 / RFU, WDR75 / Fold change vs veh, WDR75 / RFU, AHCTF1 / Fold change vs veh, AHCTF1 / RFU, TFRC / Fold change vs veh, TFRC / RFU, ZDHHC17 / Fold change vs veh, ZDHHC17 / RFU, NOM1 / Fold change vs veh, NOM1 / RFU, ARL8B / Fold change vs veh, ARL8B / RFU, ZBTB11 / Fold change vs veh, ZBTB11 / RFU, TAMM41 / Fold change vs veh, TAMM41 / RFU, KIAA1704 /// LOC100996395 / Fold change vs veh, KIAA1704 /// LOC100996395 / RFU, ING1 / Fold change vs veh, ING1 / RFU, TRMT61B / Fold change vs veh, TRMT61B / RFU, FUBP3 / Fold change vs veh, FUBP3 / RFU, TP53 / Fold change vs veh, TP53 / RFU, TNKS2 / Fold change vs veh, TNKS2 / RFU, ZFP14 / Fold change vs veh, ZFP14 / RFU, ACTR2 / Fold change vs veh, ACTR2 / RFU, PPP3R1 / Fold change vs veh, PPP3R1 / RFU, PIK3R1 / Fold change vs veh, PIK3R1 / RFU, HNRNPA1 / Fold change vs veh, HNRNPA1 / RFU, RNF170 / Fold change vs veh, RNF170 / RFU, ZNF28 / Fold change vs veh, ZNF28 / RFU, RNGTT / Fold change vs veh, RNGTT / RFU, OGT / Fold change vs veh, OGT / RFU, BRD1 / Fold change vs veh, BRD1 / RFU, MARS / Fold change vs veh, MARS / RFU, ZNF655 / Fold change vs veh, ZNF655 / RFU, FAHD1 / Fold change vs veh, FAHD1 / RFU, BDP1 / Fold change vs veh, BDP1 / RFU, LRRCC1 / Fold change vs veh, LRRCC1 / RFU, ARID1A / Fold change vs veh, ARID1A / RFU, ZNF146 / Fold change vs veh, ZNF146 / RFU, ZNF330 / Fold change vs veh, ZNF330 / RFU, GPN3 / Fold change vs veh, GPN3 / RFU, C9orf123 / Fold change vs veh, C9orf123 / RFU, N4BP2L2 / Fold change vs veh, N4BP2L2 / RFU, ARFIP1 / Fold change vs veh, ARFIP1 / RFU, FAM179B / Fold change vs veh, FAM179B / RFU, BCL10 / Fold change vs veh, BCL10 / RFU, UHRF1BP1L / Fold change vs veh, UHRF1BP1L / RFU, BET1 / Fold change vs veh, BET1 / RFU, CNOT2 / Fold change vs veh, CNOT2 / RFU, ZNF268 / Fold change vs veh, ZNF268 / Fold change vs veh, ZNF507 / RFU, DGCR2 / Fold change vs veh, DGCR2 / RFU, WDSUB1 / Fold change vs veh, WDSUB1 / Fold change vs veh, HSP90B1 /// MIR3652 / RFU, ADSS / Fold change vs veh, ADSS / RFU, GK / Fold change vs veh, GK / RFU, ZNF148 / Fold change vs veh, ZNF148 / RFU, TAF9 / Fold change vs veh, TAF9 / RFU, SLC1A5 / Fold change vs veh, SLC1A5 / RFU, SLMO2 / Fold change vs veh, SLMO2 / RFU, ABCC4 / Fold change vs veh, ABCC4 / RFU, LOC101060439 /// RAP1B / Fold change vs veh, LOC101060439 /// RAP1B / RFU, RFX7 / Fold change vs veh, RFX7 / RFU, GTPBP10 / Fold change vs veh, GTPBP10 / RFU, CNEP1R1 / Fold change vs veh, CNEP1R1 / RFU, BIVM-ERCC5 /// ERCC5 / Fold change vs veh, BIVM-ERCC5 /// ERCC5 / RFU, ILF3 / Fold change vs veh, ILF3 / RFU 11762660_at / Fold change /veh 11762660_at / RFU VCAN (11757783_s_at) / Fold change /veh VCAN (11757783_s_at) / RFU DDX43 (11728927_at) / Fold change /veh DDX43 (11728927_at) / RFU KRT8 (11758188_x_at) / Fold change /veh KRT8 (11758188_x_at) / RFU NKD1 (11759106_at) / Fold change /veh NKD1 (11759106_at) / RFU SRD5A1 (11742802_a_at) / Fold change /veh SRD5A1 (11742802_a_at) / RFU TPSAB1 /// TPSB2 (11721975_s_at) / Fold change /veh TPSAB1 /// TPSB2 (11721975_s_at) / RFU GSTM3 (11746129_a_at) / Fold change /veh GSTM3 (11746129_a_at) / RFU IL23R (11737362_x_at) / Fold change /veh IL23R (11737362_x_at) / RFU TMEM51 (11727254_a_at) / Fold change /veh TMEM51 (11727254_a_at) / RFU PIWIL2 (11732686_x_at) / Fold change /veh PIWIL2 (11732686_x_at) / RFU ORM1 (11744905_x_at) / Fold change /veh ORM1 (11744905_x_at) / RFU CCDC152 (11743942_at) / Fold change /veh CCDC152 (11743942_at) / RFU ECM1 (11717891_a_at) / Fold change /veh ECM1 (11717891_a_at) / RFU IL23R (11748794_a_at) / Fold change /veh IL23R (11748794_a_at) / RFU TNFAIP8L3 (11732012_x_at) / Fold change /veh TNFAIP8L3 (11732012_x_at) / RFU MBOAT4 (11741988_at) / Fold change /veh MBOAT4 (11741988_at) / RFU 11764193_at / Fold change /veh 11764193_at / RFU TMEM53 (11763286_at) / Fold change /veh TMEM53 (11763286_at) / RFU MAGEB2 (11727129_at) / Fold change /veh MAGEB2 (11727129_at) / RFU TMEM200A (11744735_a_at) / Fold change /veh TMEM200A (11744735_a_at) / RFU CCDC152 (11751479_a_at) / Fold change /veh CCDC152 (11751479_a_at) / RFU FAM211A (11726209_a_at) / Fold change /veh FAM211A (11726209_a_at) / RFU RGS16 (11746705_a_at) / Fold change /veh RGS16 (11746705_a_at) / RFU VCAN (11755009_s_at) / Fold change /veh VCAN (11755009_s_at) / RFU RHOB (11743442_s_at) / Fold change /veh RHOB (11743442_s_at) / RFU RGS16 (11720943_a_at) / Fold change /veh RGS16 (11720943_a_at) / RFU RGS16 (11720944_at) / Fold change /veh RGS16 (11720944_at) / RFU, VPS4B / Fold change vs veh, VPS4B / RFU, CREB1 / Fold change vs veh, CREB1 / RFU, DNAJC13 / Fold change vs veh, DNAJC13 / RFU, GNAQ / Fold change vs veh, GNAQ / RFU, CDK5R1 / Fold change vs veh, CDK5R1 / RFU, ZRANB3 / Fold change vs veh, ZRANB3 / RFU, CUL4A / Fold change vs veh, CUL4A / RFU, CCNY / Fold change vs veh, CCNY / RFU, UFL1 / Fold change vs veh, UFL1 / RFU, COG3 / Fold change vs veh, COG3 / RFU, DIAPH2 / Fold change vs veh, DIAPH2 / RFU, SKA2 / Fold change vs veh, SKA2 / RFU, AFF3 / Fold change vs veh, AFF3 / RFU, LMF1 / Fold change vs veh, LMF1 / RFU, IPO11 / Fold change vs veh, IPO11 / RFU, DFFB / Fold change vs veh, DFFB / RFU, FOXP1 / Fold change vs veh, FOXP1 / RFU, CARD8 / Fold change vs veh, CARD8 / RFU, STRN3 / Fold change vs veh, STRN3 / RFU, ADK / Fold change vs veh, ADK / RFU, RASSF2 / Fold change vs veh, RASSF2 / RFU, WIPF1 / Fold change vs veh, WIPF1 / RFU, LARP1B / Fold change vs veh, LARP1B / RFU, RASA1 / Fold change vs veh, RASA1 / RFU, RB1 / Fold change vs veh, RB1 / RFU, PPFIA1 / Fold change vs veh, PPFIA1 / RFU, MAT2A / Fold change vs veh, MAT2A / RFU, CCT5 / Fold change vs veh, CCT5 / RFU, WDR92 / Fold change vs veh, WDR92 / RFU, CUX1 / Fold change vs veh, CUX1 / RFU, TTC7A / Fold change vs veh, TTC7A / RFU, TMEM135 / Fold change vs veh, TMEM135 / RFU, DEPTOR / Fold change vs veh, DEPTOR / RFU, CPM / Fold change vs veh, CPM / RFU, DNAJB6 / Fold change vs veh, DNAJB6 / RFU, CACNA2D3 / Fold change vs veh, CACNA2D3 / RFU, DTX4 / Fold change vs veh, DTX4 / RFU, TFCP2 / Fold change vs veh, TFCP2 / RFU, GMCL1 /// GMCL1P1 / Fold change vs veh, GMCL1 /// GMCL1P1 / RFU, AEBP2 / Fold change vs veh, AEBP2 / RFU, SNHG1 /// SNORD22 /// SNORD25 /// SNORD26 /// SNORD27 /// SNORD28 /// SNORD29 /// SNORD31 / Fold change vs veh, SNHG1 /// SNORD22 /// SNORD25 /// SNORD26 /// SNORD27 /// SNORD28 /// SNORD29 /// SNORD31 / Fold change (Aza/veh), C12orf56 (ProbeSet 11735607_a_at) / Fold change (ACY-1035/veh), C12orf56 (ProbeSet 11735607_a_at) / Fold change (Aza/veh), FGFR1OP (ProbeSet 11751329_s_at) / Fold change (ACY-1035/veh), FGFR1OP (ProbeSet 11751329_s_at) / Fold change (Aza/veh), VPS36 (ProbeSet 11739960_a_at) / Fold change (ACY-1035/veh), VPS36 (ProbeSet 11739960_a_at) / RFU SYPL1 (11715823_x_at) / Fold change /veh SYPL1 (11715823_x_at) / RFU IGFBP7 (11715501_s_at) / Fold change /veh IGFBP7 (11715501_s_at) / RFU REEP3 (11722064_at) / Fold change /veh REEP3 (11722064_at) / RFU IGLL1 (11728026_x_at) / Fold change /veh IGLL1 (11728026_x_at): dose or concentration left out as unconfirmed
# Details: MV-4-11 cells, 48 hours
smiles,measurement,value
Nc1ncn([C@@H]2O[C@H](CO)[C@@H](O)[C@H]2O)c(=O)n1 [azacitidine],Fold change /veh OR2T12 /// OR2T33 /// OR2T8 (11738714_s_at),1.07
